The results in this text go back to patent US20240342133A1, “TOPICAL STATIN FORMULATION FOR TREATMENT OF LICHEN SCLEROSUS AND PSORIASIS” (TBT PHARMA, INC, priority 2023, published 2024).

In one experiment the test system is chronic wounds. The experiment in a line: Full thickness diabetic porcine wound model. Particulars: for increase in wound vascularity (% vascularity): versus vehicle, day 10, PD31 stain. The format is in vivo. How it is done:
FIG. 6. Histology sections of optimal dose at day 10 show increased epithelialization and vascularization. FIG. 7. Percent vascularity at day 10 determined by PD31 stain. […] Mevastatin, simvastatin, and a combination were tested in a full thickness diabetic porcine model. FIG. 6 confirms that statins are an effective treatment of chronic wounds with a known mechanism of action. The compounds show increased epithelialization and vascularization.

The subject of another experiment is cortisol. The experiment in a line: Cortisol levels in primary human keratinocyte cultures and organotype wound healing models. It counts as cell-based. The following applies: after treatment. From the text:
FIG. 4. Cortisol levels in organotype wound models after treatment with mevastatin. […] Without cholesterol, local cortisol production should drop because cholesterol is required for cortisol synthesis. This was confirmed in primary human keratinocyte cultures and organotype wound healing models after treatment with mevastatin.

Another experiment deals with c-myc. As to the kind of experiment: c-myc expression in human skin ex-vivo (chronic wound) cultures and organotype wound models. The following applies: samples from chronic wounds, cultured, before and after treatment; relatively short time frame. It counts as cell-based. The text has this: FIG. 3. C-myc expression in ex-vivo cultures before and after treatment with mevastatin. […] Samples are directly from chronic wounds, cultured, and measured c-myc levels before and after treatment with mevastatin. […] A large effect of high c-myc levels is that they cause abnormal differentiation and migration of keratinocytes.

For the next experiment, the system named is MRSA. As to the kind of experiment: MRSA load in ex-vivo wound cultures. Also on record: species or system methicillin resistant staph aureus. Particulars: after 24 hours.
Experiment [1] deals with Primary human keratinocytes. As to the kind of experiment: Keratinocyte migration scratch test. The format is cell-based. Particulars: varying doses.
The mark [2] stands for this setting: full thickness diabetic porcine model, day 10.

Regarding `CC[C@H](C)C(=O)O[C@H]1CCC=C2C=C[C@H](C)[C@H](CC[C@@H]3C[C@@H](O)CC(=O)O3)[C@H]21` [mevastatin], in the experiment on chronic wounds (setting [2]), the epithelialization entry was “increased” and the vascularization entry is on record as “increased”. Further, the “increase in wound vascularity (% vascularity)” value in the experiment on chronic wounds is around 3 fold. Besides, in the experiment on cortisol, the local cortisol production result is on record as “drop”. The c-myc levels entry in the experiment on c-myc is “drop drastically”. In the experiment with MRSA, the MRSA load result is “drastic reduction”. The keratinocyte migration result in experiment [1] is recorded as “increasing migration levels with dose”.

As to `CCC(C)(C)C(=O)O[C@H]1C[C@@H](C)C=C2C=C[C@H](C)[C@H](CC[C@@H]3C[C@@H](O)CC(=O)O3)[C@H]21` [simvastatin], the “increase in wound vascularity (% vascularity)” value in the experiment on chronic wounds is listed as around 3 fold.
